The source of these data is US20070213359A1 (ACADIA Pharmaceuticals Inc., priority 2005, published 2007).

Each structure is given as a SMILES string. Like-named read-outs stand apart in the source and are kept apart here.

The target in one assay is T1, GHSR1a receptor (Homo sapiens, UniProt Q92847).
T1 construct: expressed in transfected cells; host or cells: HEK293 (membranes)
Nature of the assay: 125I-Ghrelin binding assay. Particulars: displacement of 125I-ghrelin (0.053 nM), membranes of HEK293 cells transfected with GHSR1a; Cheng-Prussoff; '—' not defined; read-out: Binding pKi (converted). A general note: Displacement assays read how much labelled ligand stays bound in the presence of the test substance.

The next assay has as its target Ghrelin receptor (Homo sapiens, UniProt Q92847). Nature of the assay: Receptor Selection and Amplification Technology (R-SAT) assay. The format is cell-based. Particulars: for IC50: '—' not defined (nd used separately), read-out: RSAT pIC50 (converted); for Emax: read-out: RSAT Eff(%). Also on record: expressed in transfected cells; host or cells: NIH3T3.
Setting [1] is: negative logarithm of ligand concentration causing 50% inhibition of constitutive receptor response, transfected NIH3T3 cells.
Setting [2] is: percent inhibition at saturating ligand, normalized to reference ligand Substance P analog = 100%.

T1 sequence (Q92847 whole entry): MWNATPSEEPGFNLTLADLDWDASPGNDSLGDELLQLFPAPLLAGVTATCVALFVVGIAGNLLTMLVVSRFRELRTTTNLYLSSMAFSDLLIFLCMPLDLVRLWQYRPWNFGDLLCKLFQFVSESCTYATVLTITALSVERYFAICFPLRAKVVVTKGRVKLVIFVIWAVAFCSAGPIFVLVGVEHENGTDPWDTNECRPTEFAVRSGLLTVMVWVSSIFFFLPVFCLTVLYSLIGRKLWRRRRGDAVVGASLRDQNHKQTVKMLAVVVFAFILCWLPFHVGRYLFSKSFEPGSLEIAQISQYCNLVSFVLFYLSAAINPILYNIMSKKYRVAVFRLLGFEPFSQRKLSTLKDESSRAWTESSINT
Ghrelin receptor, sequence (Q92847 whole entry): as above

For the compound `CC(=O)c1cn(CCCN2C3CCC2CC(CC(=O)c2ccccc2)C3)c2c(C)cccc12` (stereo not drawn), the Ki at GHSR1a receptor was 200 nM. Also, the IC50 on Ghrelin receptor (setting [1]) was 0.794 nM. In addition, the Emax at Ghrelin receptor (setting [2]) came to 91%.

As for `CC(=O)c1cn(CCCN2CCC(Oc3ccccc3Cl)CC2)c2c(Br)cccc12`, the Ki at GHSR1a receptor was 126 nM. In addition, the IC50 on Ghrelin receptor (setting [1]) is 12.6 nM. For the same compound, the Emax on Ghrelin receptor (setting [2]) was 96%.

As for `COc1cccc2c(C(=O)c3ccccc3)cn(CCCN3CCN(CCOc4ccccc4)CC3)c12`, at GHSR1a receptor, the Ki is 251 nM. Further, at Ghrelin receptor ([…]), the IC50 is 12.6 nM. Moreover, on Ghrelin receptor, the Emax turned out to be 98%.

On to `COc1cccc2c(C(=O)Cc3ccccc3)cn(CCCN3CCN(CCOc4ccccc4)CC3)c12`, for which, on GHSR1a receptor, the Ki is 39.8 nM. The IC50 at Ghrelin receptor ([…]) was 12.6 nM. In addition, the Emax on Ghrelin receptor amounted to 99%.

On to `COc1cccc2c(C(C)=O)cn(CCCN3CCC(Oc4ccccc4Cl)CC3)c12`, for which the Ki on GHSR1a receptor was 794 nM. For the same compound, the IC50 at Ghrelin receptor (setting [1]) was 15.8 nM. Besides, the “RSAT Eff(%)” value at Ghrelin receptor (setting [2]) is 98%.

Consider `CC(=O)c1cn(CCCN2CCC(Oc3cccc(Cl)c3)CC2)c2ncccc12`, for which the Ki at GHSR1a receptor was 316 nM. For the same compound, at Ghrelin receptor (setting [1]), the IC50 is 15.8 nM. Also, at Ghrelin receptor (setting [2]), the Emax came out at 124%.

On to `CCCCC1CCN(CCCn2cc(C(=O)NCc3cccc(C)c3)c3cccc(OC)c32)CC1`, for which the Ki at GHSR1a receptor was 316 nM. Moreover, the IC50 at Ghrelin receptor ([…]) was 15.8 nM. For the same compound, on Ghrelin receptor, the Emax amounted to 72%.

Regarding `COc1cccc2c(C(C)=O)cn(CCCN3CCN(c4ccc(F)cc4)CC3)c12`, the Ki on GHSR1a receptor was 501 nM. Further, the IC50 on Ghrelin receptor (setting [1]) is 15.8 nM. Besides, the Emax at Ghrelin receptor (setting [2]) was 95%.

In the case of `CC(=O)c1cn(CCCN2C3CCC2CC(Oc2ccc(F)cc2)C3)c2ncccc12` (stereo not drawn), at GHSR1a receptor, the Ki is 501 nM. The IC50 on Ghrelin receptor (setting [1]) was 15.8 nM. The Emax at Ghrelin receptor (setting [2]) was determined as 77%.

`CCCCC1CCN(CCCn2cc(C(C)=O)c3cccc(Br)c32)CC1`: the Ki on GHSR1a receptor is 158 nM. In addition, the IC50 on Ghrelin receptor (setting [1]) is 20 nM. Moreover, on Ghrelin receptor (setting [2]), the Emax worked out at 87%.

In the case of `COc1cccc2c(C(C)=O)cn(CCCN3CCN(Oc4ccccc4Cl)CC3)c12`, the Ki at GHSR1a receptor was 316 nM. On Ghrelin receptor (setting [1]), the IC50 was 20 nM. In addition, at Ghrelin receptor (setting [2]), the Emax was determined as 100%.

In the case of `CC(=O)c1cn(CCCN2C3CCC2CC(Oc2ccccc2Cl)C3)c2c(C#N)cccc12` (stereo not drawn), on GHSR1a receptor, the Ki was 200 nM. In addition, the IC50 on Ghrelin receptor (setting [1]) is 20 nM. For the same compound, the Emax on Ghrelin receptor (setting [2]) turned out to be 83%.

On to `CC(=O)c1cn(CCCN2CCC(Oc3ccccc3Cl)CC2)c2c(C)cccc12`, for which, at GHSR1a receptor, the Ki was 631 nM. The IC50 on Ghrelin receptor (setting [1]) is 20 nM. At Ghrelin receptor (setting [2]), the Emax stood at 110%.

As for `CC(=O)c1cn(CCCN2CCC(Oc3cccc(Cl)c3)CC2)c2c(Cl)cccc12`, on GHSR1a receptor, the Ki is 100 nM. For the same compound, the IC50 on Ghrelin receptor (setting [1]) is 20 nM. The Emax on Ghrelin receptor (setting [2]) came out at 83%.

As to `CCCCC1CCN(CCCn2cc(C(C)=O)c3cccc(OC)c32)CC1`, the Ki on GHSR1a receptor is 1580 nM. The IC50 on Ghrelin receptor (setting [1]) was 20 nM. In addition, on Ghrelin receptor (setting [2]), the Emax was 116%.

Consider `CCc1cccc2c(C(C)=O)cn(CCCN3C4CCC3CC(CCc3ccc(Cl)cc3)C4)c12` (stereo not drawn), for which, at GHSR1a receptor, the Ki is 100 nM. Further, on Ghrelin receptor (setting [1]), the IC50 was 20 nM. Moreover, the Emax at Ghrelin receptor came to 95%.

Regarding `COc1cccc2c(C(=O)c3ccccc3)cn(CCCNCCOc3ccccc3)c12`, the Ki on GHSR1a receptor was 158 nM. Further, at Ghrelin receptor ([…]), the IC50 was 20 nM. On Ghrelin receptor, the Emax was found to be 74%.

Consider `CC(=O)c1cn(CCCN2C3CCC2CC(Oc2ccccc2Cl)C3)c2ncccc12` (stereo not drawn), for which the Ki on GHSR1a receptor is 31.6 nM. In addition, the IC50 at Ghrelin receptor (setting [1]) was 20 nM. At Ghrelin receptor (setting [2]), the Emax amounted to 108%.

In the case of `COc1cccc2c(C(=O)c3ccccc3)cn(CCCN3CCC(Oc4ccc(F)cc4)CC3)c12`, the Ki at GHSR1a receptor is 1260 nM. In addition, the IC50 at Ghrelin receptor ([…]) was 25.1 nM. Moreover, the Emax at Ghrelin receptor was found to be 107%.

For `COc1ccccc1C1CCN(CCCn2cc(C(=O)NCC(C)C)c3cccc(OC)c32)CC1`, on GHSR1a receptor, the Ki was 126 nM. On Ghrelin receptor (setting [1]), the IC50 was 25.1 nM. At Ghrelin receptor, the Emax is 108%.

For the compound `COc1cccc2c(C(C)=O)cn(CCCN3CCN(c4ccccc4Cl)CC3)c12`, the Ki on GHSR1a receptor was 2510 nM. In addition, the IC50 on Ghrelin receptor (setting [1]) was 25.1 nM. Also, the Emax at Ghrelin receptor (setting [2]) amounted to 108%.
